These results are taken from patent US8765722B2 (priority 2009, dated 2014).

For this assay, the system named is human hepatoma Huh-7 cell line harboring a HCV replicon. Nature of the assay: microbe, parasite or virus in culture. Format: cell-based. The following applies: for EC50 / inhibition at 2 µM: Hepatitis C virus; for EC50: Huh-7; for inhibition at 2 µM: Huh-7, 72 h, read-out: % inhibition at 2 μM.

Bounds are passed on as bounds.

Broadly, the EC50 is the midpoint of the concentration-response curve. Lower therefore signals a more potent agent. In general, inhibition refers to the drop in the measured response relative to a control, in per cent. Regarding `CC(C)(C)C#Cc1cc(N(CCP(C)(=O)O)C(=O)[C@H]2CC[C@H](C)CC2)c(C(=O)O)s1` [Compound 19, 5-(3,3-dimethyl-but-1-ynyl)-3-[[2-(hydroxy-methyl-phosphinoyl)-ethyl]-(4-methyl-cyclohexanecarbonyl)-amino]-thiophene-2-carboxylic acid], the EC50 was ≤ 500 nM and the inhibition at 2 µM stood at 94.2%.
On the same counts, the results for `CCP(=O)(CC)O[C@H]1CC[C@H](N(c2cc(C#CC(C)(C)C)sc2C(=O)O)C(=O)[C@H]2CC[C@H](C)CC2)CC1` [Compound 2, 3-[[trans-4-(Diethyl-phosphinoyloxy)-cyclohexyl]-(trans-4-methyl-cyclohexanecarbonyl)-amino]-5-(3,3-dimethyl-but-1-ynyl)-thiophene-2-carboxylic acid] are ≤ 500 nM and 99.8%.
As for `CC(C)(C)C#Cc1cc(N(C(=O)[C@H]2CC[C@H](C)CC2)[C@H]2CC[C@@H](OP(C)(C)=O)CC2)c(C(=O)O)s1` [Compound 5, 5-(3,3-Dimethyl-but-1-ynyl)-3-[[cis-4-(dimethyl-phosphinoyloxy)-cyclohexyl]-(trans-4-methyl-cyclohexanecarbonyl)-amino]-thiophene-2-carboxylic acid], the EC50 is ≤ 500 nM and the inhibition at 2 µM turned out to be 100%.
In the case of `CC(C)(C)C#Cc1cc(N(C(=O)[C@H]2CC[C@H](C(F)(F)F)CC2)[C@H]2CC[C@H](OP(C)(C)=O)CC2)c(C(=O)O)s1` [Compound 6, 5-(3,3-Dimethyl-but-1-ynyl)-3-[[trans-4-(dimethyl-phosphinoyloxy)-cyclohexyl]-(trans-4-trifluoromethyl-cyclohexanecarbonyl)-amino]-thiophene-2-carboxylic acid], the inhibition at 2 µM came out at 93.2%.
Turning to `CP(C)(=O)O[C@H]1CC[C@H](N(c2cc(-c3ccc(NC(=O)c4cscn4)cc3)sc2C(=O)O)C(=O)[C@H]2CC[C@H](C)CC2)CC1` [Compound 7, 3-[[trans-4-(Dimethyl-phosphinoyloxy)-cyclohexyl]-(trans-4-methyl-cyclohexanecarbonyl)-amino]-5-{4-[(thiazole-4-carbonyl)-amino]-phenyl}-thiophene-2-carboxylic acid], the EC50 was ≤ 500 nM and the inhibition at 2 µM amounted to 99.8%.
Regarding `CCOP(C)(=O)C1(OC)CCC(N(c2cc(C#CC(C)(C)C)sc2C(=O)O)C(=O)[C@H]2CC[C@H](C)CC2)CC1` (stereo partly shown) [Compound 14], the EC50 was ≤ 500 nM and the inhibition at 2 µM came out at 99.8%.
Turning to `CP(=O)(O)Cc1ccc(-c2cc(N(C(=O)[C@H]3CC[C@H](C)CC3)[C@H]3CC[C@H](O)CC3)c(C(=O)O)s2)cc1` [Compound 22], the inhibition at 2 µM was 12.3%.
As a reminder, the % inhibition is the share of the control response that was lost under treatment. A lower % inhibition goes with a weak effect. With “5-(3,3-Dimethyl-but-1-ynyl)-3-[[trans-4-(dimethyl-phosphinoyloxy)-cyclobutyl]-cis-4-methyl-cyclohexanecarbonyl)-amino]-thiophene-2-carboxylic acid [Compound 17]”, the “% inhibition at 2 μM” value was found to be 99.5%.
For the compound `CC(C)(C#Cc1cc(N(C(=O)[C@H]2CC[C@H](C)CC2)[C@H]2CC[C@H](O)CC2)c(C(=O)O)s1)CCOP(C)(C)=O` [Compound 23], the EC50 was ≤ 500 nM.
`COP1(=O)CCC(N(c2cc(C#CC(C)(C)C)sc2C(=O)O)C(=O)[C@H]2CC[C@H](C)CC2)CC1` (stereo partly drawn) [Compound 11, 5-(3,3-Dimethyl-but-1-ynyl)-3-[(1-methoxy-1-oxo-1 λ^5phosphinan-4-yl)-(trans-4-methyl-cyclohexanecarbonyl)-amino]-thiophene-2-carboxylic acid]: the concentration for a half-maximal effect (EC50) is ≤ 500 nM and the inhibition at 2 µM was 99.8%.
On to `CCOP(C)(=O)Cc1ccc(-c2cc(N(C(=O)[C@H]3CC[C@H](C)CC3)C3CCC4(CC3)OCCO4)c(C(=O)O)s2)cc1` (stereo partly shown) [Compound 20, 3-[(1,4-Dioxa-spiro[4.5]dec-8-yl)-(4-methyl-cyclohexanecarbonyl)-amino]-5-[4-(ethoxy-methyl-phosphinoylmethyl)-phenyl]-thiophene-2-carboxylic acid], for which the inhibition at 2 µM stood at 56.3%.
As for `CC(C)(C)C#Cc1cc(N(C(=O)[C@H]2CC[C@H](C)CC2)[C@H]2CC[C@H](OP(C)(C)=O)CC2)c(C(=O)O)s1` [Compound 1, 5-(3,3-Dimethyl-but-1-ynyl)-3-[[trans-4-(dimethyl-phosphinoyloxy)-cyclohexyl]-(trans-4-methyl-cyclohexanecarbonyl)-amino]-thiophene-2-carboxylic acid], the EC50 is ≤ 500 nM and the inhibition at 2 µM amounted to 99.8%.
Turning to `CCOP(=O)(CCNC1CCC(N(c2cc(C#CC(C)(C)C)sc2C(=O)O)C(=O)[C@H]2CC[C@H](C)CC2)CC1)OCC` (stereo partly shown) [Compound 24, 3-(1,4-N-(4-(2-(diethoxyphosphoryl)ethylamino)cyclohexyl)-4-methylcyclohexanecarboxamido)-5-(3,3-dimethylbut-1-ynyl)thiophene-2-carboxylic acid], the EC50 was ≤ 500 nM.
As to `COP1(=O)CCC(NC2CCC(N(c3cc(C#CC(C)(C)C)sc3C(=O)O)C(=O)[C@H]3CC[C@H](C)CC3)CC2)CC1` (stereo partly drawn) [Compound 9, 5-(3,3-Dimethyl-but-1-ynyl)-3-[[4-(1-methoxy-1-oxo-1λ^5-phosphinan-4-ylamino)-cyclohexyl]-(trans-4-methyl-cyclohexanecarbonyl)-amino]-thiophene-2-carboxylic acid], the EC50 is ≤ 500 nM and the inhibition at 2 µM was found to be 99.9%.
Take `CC(C)(C)C#Cc1cc(N(C(=O)[C@H]2CC[C@H](C)CC2)[C@H]2CC[C@H](OP(C)(=O)c3ccccc3)CC2)c(C(=O)O)s1` (stereo partly drawn) [Compound 3, 5-(3,3-Dimethyl-but-1-ynyl)-3-{(trans-4-methyl-cyclohexanecarbonyl)-[trans-4-(methyl-phenyl-phosphinoyloxy)-cyclohexyl]-amino}-thiophene-2-carboxylic acid]: the EC50 was ≤ 500 nM and the inhibition at 2 µM is 99.6%.
On the same counts, the results for `CCOP(C)(=O)C1(O)CCC(N(c2cc(C#CC(C)(C)C)sc2C(=O)O)C(=O)[C@H]2CC[C@H](C)CC2)CC1` (stereo partly drawn) [Compound 13, 5-(3,3-dimethylbut-1-ynyl)-3-((1r,4r)-N-(4-ethoxy(methyl)phosphoryl)-4-hydroxycyclohexyl)-(trans-4-methylcyclohexanecarboxamido)thiophene-2-carboxylic acid] are ≤ 500 nM and 99.8%.
Turning to `CCOP(C)(=O)CCN(c1cc(C#CC(C)(C)C)sc1C(=O)O)C(=O)[C@H]1CC[C@H](C)CC1` (stereo partly shown) [Compound 18, 5-(3,3-Dimethyl-but-1-ynyl)-3-[[2-(ethoxy-methyl-phosphinoyl)-ethyl]-(4-methyl-cyclohexanecarbonyl)-amino]thiophene-2-carboxy-lic acid], the EC50 was ≤ 500 nM and the inhibition at 2 µM is 98.8%.
Consider `CC(C)(C)C#Cc1cc(N(C(=O)[C@H]2CC[C@H](C)CC2)[C@H]2CC[C@H](OP(=O)(c3ccccc3)c3ccccc3)CC2)c(C(=O)O)s1` [Compound 4, 5-(3,3-Dimethyl-but-1-ynyl)-3-[[trans-4-(diphenyl-phosphinoyloxy)-cyclohexyl]-(trans-4-methyl-cyclohexanecarbonyl)-amino]-thiophene-2-carboxylic acid], for which the inhibition at 2 µM amounted to 94.7%.
With `CC(C)(C)C#Cc1cc(N(CCOP(C)(C)=O)C(=O)[C@H]2CC[C@H](C)CC2)c(C(=O)O)s1` [Compound 15, 5-(3,3-Dimethyl-but-1-ynyl)-3-[[2-(dimethyl-phosphinoyloxy)-ethyl]-(trans-4-methyl-cyclohexanecarbonyl)-amino]-thiophene-2-carboxylic acid], the half-maximal effective concentration (EC50) was ≤ 500 nM and the inhibition at 2 µM was 98.9%.
Turning to `CCOP(C)(=O)Cc1ccc(-c2cc(N(C(=O)[C@H]3CC[C@H](C)CC3)[C@H]3CC[C@H](O)CC3)c(C(=O)O)s2)cc1` (stereo partly shown) [Compound 21], the inhibition at 2 µM stood at 79.2%.
Consider `CP(C)(=O)O[C@H]1CC[C@H](N(c2cc(-c3ccc(-c4cc5ncccn5n4)cc3)sc2C(=O)O)C(=O)[C@H]2CC[C@H](C)CC2)CC1` [Compound 8], for which the EC50 was ≤ 500 nM and the inhibition at 2 µM is 99.8%.
With `CC(C)(C)C#Cc1cc(N(C(=O)[C@H]2CC[C@H](C)CC2)C2CCP(=O)(O)CC2)c(C(=O)O)s1` (stereo partly drawn) [Compound 12, 5-(3,3-Dimethyl-but-1-ynyl)-3[(1-hydroxy-1-oxo-1 λ^5phosphinan-4-yl)-(trans-4-methyl-cyclohexanecarbonyl)-amino]-thiophene-2-carboxylic acid], the inhibition at 2 µM turned out to be 98.2%.
Regarding `CCP(=O)(CC)OCCN(c1cc(C#CC(C)(C)C)sc1C(=O)O)C(=O)[C@H]1CC[C@H](C)CC1` [Compound 16, 3-[[2-(Diethyl-phosphinoyloxy)-ethyl]-(trans-4-methyl-cyclohexanecarbonyl)-amino]-5-(3,3-dimethyl-but-1-ynyl)-thiophene-2-carboxylic acid], the 50% effective concentration (EC50) is ≤ 500 nM and the inhibition at 2 µM worked out at 99.5%.
